Earlier results on one compound are cited in patent US20120237901A1, “Denture Adhesive Remover for Intraoral and Extraoral Use” (priority 2011, published 2012).

Series [1] relates to mold. Conditions: 5% solution of acetic acid in water; reportedly.
Series [2] deals with bacteria. Conditions: 5% solution of acetic acid in water; reportedly.

As to `CC(=O)O` [acetic acid], the effective against mold in series [1] is recorded as 90%. The effective against bacteria in series [2] is given as 99.9%.
